Experiments:
[1] = system: HMGB1 binding to KAP-α1; test: GST-KAP-α1 pull-down of HMGB1 from treated RAW 264.7 cell lysates; settings: GST-KAP-α1 on glutathione-Sepharose beads; WCLs of treated RAW 264.7 cells
Protocol: FIGS. 4A-4C show the binding of HMGB1 to nuclear import proteins. (A) GST-KAP-α1, -2, -3, -4, -5, -6, and -β1 fusion proteins immobilized on glutathione-Sepharose 4B beads were incubated with WCLs of RAW 264.7 cells overnight at 4° C. Sepharose-bound proteins were separated and the membrane was blotted with anti-HMGB1 and reblotted with anti-GST. WCL was loaded as an HMGB1 control (lane 1), and GST protein was used as a negative control (lane 2). (B) Six His-tagged wild type HMGB1 and boxes A (aa 1-87) and B (aa 88-162) HMGB1 proteins were purified from E. coli BL21 and identified at expected size by Coomassie blue staining. HMGB1 and GST-KAP-α1 was incubated for 2 h at 4° C., and the precipitate was blotted with anti-His for HMGB1 and reblotted with anti-GST for KAP-α1. (C) GST-KAP-α1, immobilized on glutathione-Sepharose beads, was incubated with WCLs of RAW 264.7 cells which were treated with OA, TSA, or TNF-α. The precipitates were blotted with anti-HMGB1 and reblotted with anti-GST.
Two μg of each GST-KAP protein was coupled to glutathione sepharose 4B beads and incubated with 500 μg of WCL from RAW 264.7 cells as a HMGB1 source at 4° C. overnight. […]

[2] = system: HMGB1-GFP; test: HMGB1-GFP imaging in transfected RAW 264.7 cells; format: cell-based, Murine; settings: OA 100 nM 4 h, TSA 10 ng/mL 2 h, TNF-α 20 ng/mL 16 h
Protocol: RAW 264.7 cells (A) and human PBMo cells (B) were treated with OA (100 nM for 8 h), and immunofluorescent staining was performed to observe the HMGB1. TNF-α (20 ng/mL for 16 h) was used as a positive control cytokine. […] (C) Western blot analysis of HMGB1 protein in the culture supernatants of PBMo cells, which were from (B). (D) HMGB1 in the nucleus is transported to the cytoplasm by phosphorylation. RAW 264.7 cells were transfected with a wild type HMGB1-GFP plasmid and cultured for 24 h. And then the cells were treated with 2 μg/mL CHX for 1 h followed by OA treatment for 4 h or by TSA treatment for 2 h and green fluorescent images were observed. Bar: 10 μm.
FIGS. 6A-6E show Mutation of HMGB1 NLS sites alters subcellular distribution of HMGB1. (A) RAW 264.7 cells were transfected with wild-type and each mutant HMGB1-GFP plasmid and immunofluorescent assays were performed 24 h later without any treatment. (B, C, and D) OA (100 nM for 4 h), TSA (10 ng/mL for 2 h), and TNF-α (20 ng/mL for 16 h) were applied 24 h after transfection to observe the effect on HMGB1 nuclear export by phosphorylation, acetylation, or both. […] (E) Secretion of wild-type and each mutant HMGB1-GFP was tested 24 h after transfection by Western blotting. The culture supernatants were concentrated and blotted with anti-GFP. Bar: 10 μm. […]

[3] = system: HMGB1 phosphorylation; test: Metabolic [32P] labeling / immunoprecipitation of HMGB1 phosphorylation in RAW 264.7 cells; format: cell-based, Murine
Protocol: (§1) (A) RAW 264.7 cells were treated with TNF-α (20 ng/mL for 16 h) or OA (100 nM for 8 h). The nuclear (Nu) and cytoplasmic (Cyt) proteins were separated and blotted with anti-HMGB1. (B) Metabolic [^32P] labeling of HMGB1 in RAW 264.7 cells. RAW 264.7 cells were metabolically labeled with [^32P]orthophosphate for 4 h, and stimulated with OA (100 nM), TNF-α (20 ng/mL) and LPS (100 ng/mL) for 2 or 8 h. WCLs were immunoprecipitated with rabbit anti-HMGB1 from two different vendors of BD PharMingen (BD) and Upstate Biotechnology (UP). The proteins were resolved and transferred to nitrocellulose membrane and visualized by autoradiography. (C) RAW 264.7 cells were treated with TNF-α, and WCLs were immunoprecipitated with anti-pSer, anti-pTyr, and anti-pThr and blotted with anti-HMGB1. WCL was loaded as an HMGB1 control (lane 1). Anti-pAKT was used for a control antibody (lane 3). (D) RAW 264.7 cells were treated with TNF-α for the indicated time. WCLs were immunoprecipitated with anti-HMGB1, blotted with anti-pSer and reblotted with anti-HMGB1. The same culture supernatants were concentrated, separated, and blotted with anti-HMGB1.
To identify the phosphorylated residues of the HMGB1 protein, TNF-α-treated RAW 264.7 cells were lysed with a protease inhibitor cocktail. Cell homogenates were centrifuged at 20,000 g for 15 min and precleared by incubation with protein G-Sepharose (Amersham) at 4° C. for 30 min. The precleared extracts (500 μg) were incubated with rabbit polyclonal anti-pSer, anti-pTyr and anti-pThr (all from Chemicon) and then protein G-Sepharose was added and incubated for 3 h at 4° C. […]
RAW 264.7 cells were cultured in phosphate starved condition of phosphate-free DMEM containing 10% dialyzed FBS (Gibco BRL) for 4 h and further incubated for 4 h by adding 600 μCi of [^32P]orthophosphate (Amersham Pharmacia Biotech) per mL to each dish. […] The concentration of total soluble proteins in the supernatant was quantified using the Bradford reagent (Bio-Rad). […] The gels were dried and the radioactivity was analyzed by autoradiography.

[4] = system: HMGB1; test: HMGB1 relocation from nucleus to cytoplasm in RAW 264.7 cells (fraction Western blot, immunofluorescence); format: cell-based, Murine; settings: OA 100 nM for 8 h, TNF-α 20 ng/mL for 16 h
Protocol: as §1, with “(D) RAW 264.7 cells were treated with TNF-α for the indicated time. WCLs were immunoprecipitated with anti-HMGB1, blotted with anti-pSer and reblotted with anti-HMGB1. The same culture supernatants were concentrated, separated, and blotted with anti-HMGB1.” left out
To analyze the secretion of HMGB1 in the supernatants, culture media were replaced with serum-free OPTI-MEM (Gibco BRL) medium and concentrated with Amicon Centricon filtration (Millipore) after removing cell debris, and Western blot analysis was performed. […] The cells were lysed using 1% Nonidet P-40 buffer containing a protease inhibitor cocktail (Sigma), and the protein concentrations were measured by Bradford assay (Biorad) for the analysis of whole cell lysates (WCLs). […]

| Compound | binding of HMGB1 from treated cell lysate to KAP-α1 [1] | HMGB1-GFP (wild-type and mutants) relocation 24 h after transfection [2] | level of phosphorylated (p-) HMGB1 (IP anti-HMGB1, blot anti-pSer) ([3]; RAW 264.7 cells treated with TNF-α for the indicated time) | phosphorylated amino acid residue of HMGB1 (IP anti-pSer, anti-pTyr, anti-pThr) ([3]; RAW 264.7 cells, 20 ng/mL TNF-α for 16 h) | HMGB1 phosphorylation ([32P]orthophosphate labeling, autoradiography) ([3]; RAW 264.7 cells, 100 nM OA, 20 ng/mL TNF-α, 100 ng/mL LPS, 2 or 8 h) | HMGB1 in the cytoplasm (nuclear/cytoplasmic fractions, Western blot) [4] |
| --- | --- | --- | --- | --- | --- | --- |
| CC(/C=C/C(=O)NO)=C\[C@@H](C)C(=O)c1ccc(N(C)C)cc1 [TSA, trichostatin A] | no binding to KAP-α1 | the wild-type and all mutant HMGB1-GFPs showed cytoplasmic relocation | – | – | – | – |
| TNF-α | – | The same results were observed | increased by TNF-α in a time-dependent manner | Only serine residues of HMGB1 were phosphorylated | phosphorylated | translocation of nuclear HMGB1 to the cytoplasm |
